Measured values: patent US4448785A, “N-Unsaturated fatty acid amides of tryptophan ester homologues and anti-cholesteric use thereof” (Sandoz, Inc., priority 1982, dated 1984)
Values joined by “and” are separate entries in the source; they are usually repeats but may differ in a detail not shown here. Equal values may be shown once.

Columns and labels:
[1] = test system: monkey aortic smooth muscle cells; assay: Cell culture cholesterol ester test, monkey aortic smooth muscle cells (Table 2); format: cell-based, Rhesus monkey; details: 5% HRS
Excerpt: The compounds of formula I of this invention are useful as pharmaceutical agents in animals. In particular, the compounds of the formula I are useful in controlling the cholesterol ester content of mammalian arterial walls and are therefore particularly indicated for use as anti-atherosclerotic agents, ie. agents useful in the prophylactic treatment of atherosclerosis and in the controlling of atherosclerotic conditions due to cholesterol ester accumulation in the arterial walls. Such ability of the compounds of the formula I is indicated e.g., by known test procedures in which the total cholesterol ester content of cultured cells is shown to be reduced by a test compound, as compared to untreated cells, and carried out, for example, by the following procedures:
(§1) Rhesus monkey smooth muscle cells (from the arterial, eg aorta wall) obtained by the method of K. Fisher-Dzoga et al (Experimental and Molecular Pathology 18, 162-176 (1973)) are routinely grown in 75 cm^2 tissue culture flasks using Minimum Essential Medium (Eagle) supplemented with 10% fetal bovine serum. For testing a 75 cm^2 flask with a near confluent cell growth is selected. The cells are removed from the flask surface by mild enzymatic treatment with pronase. After centrifugation and decanting the enzyme solution, the cell pellet is resuspended in an appropriate volume of media for seeding the desired number of 60 mm tissue culture dishes. Five (5) ml of the diluted cell suspension are pipetted into each dish. After seeding, the dishes are labelled with the cell type, date and flask number of origin and incubated at 37° C. in approximately 5% CO2 atmosphere in a high humidity incubator. When the cultures are confluent, the actual drug testing is begun. Test compounds are routinely solubilized in 100% ethanol. An equivalent amount of ethanol is added to control groups as well. The tissue culture dishes are randomly divided into groups. To one group, hyperlipemic rabbit serum (HRS) is added at 5% by volume (control). To the remaining groups, 5% HRS and 1 mg per 100 ml of media of the test compound are added. The dishes are returned to the incubator for an additional 24 hours. All operations through to the final incubation are performed using sterile technique in a laminar flow hood. After the incubation period, the dishes are microscopically observed with the Zeiss Axiomat with phase contrast optics and the conditions of the cultures are recorded; especially in regard to the size, number and configuration of cytoplasmic inclusions and to cellular morphology. The media is removed from the cultures and 0.9% sodium chloride solution is added. The cells are removed from the flasks with the aid of a rubber policeman and transferred to a conical graduated centrifuge tube. The cells are washed three times by suspending in an isotonic salt solution, centrifuging at 800× g for 10 minutes and aspirating the supernatant fluid.
(§2) An appropriate volume of isopropyl alcohol (about 1 ml/mg protein) is then added to the cell pellet and the sample sonicated with a micro probe (140×3 mm) for 10 seconds with a "LO" setting of 50 on a Bronwell Biosonik IV. After centrifugation for 15 minutes at 800× g, the clear supernatant is decanted and an aliquot taken for cholesterol analysis.
The residue is dissolved in 0.1 N sodium hydroxide and an aliquot taken for protein determination by the method of Lowry, et al. (J. Biol. Chem. 193, 265; 1951). […]

Fu5AH rat hepatoma cells = assay: Inhibition of cholesterol ester accumulation in Fu5AH cells; format: cell-based; design: Visual (in comparison to results with compound of Example 2a) / % Inhibition of cholesterol ester accumulation: unit of the concentration uncertain; details: for inhibition at 10 µg/mL: Rattus norvegicus
Excerpt: as §1, with “For” for “Rhesus monkey smooth muscle cells (from the arterial, eg aorta wall) obtained by the method of K. Fisher-Dzoga et al (Experimental and Molecular Pathology 18, 162-176 (1973)) are routinely grown in 75 cm^2 tissue culture flasks using Minimum Essential Medium (Eagle) supplemented with 10% fetal bovine serum. For”, “To the remaining groups, 5% HRS and 1 mg per 100 ml of media of the test compound are added.” left out
as §2
An aliquot of 0.4 ml of free reagent (Reagent A, Table 1 below) is added to a 10×75 mm disposable glass test tube to which 20 μl of the isopropyl alcoholic solution is added and mixed. After standing at room temperature for approximately 5 minutes, 0.8 ml of 0.5 N sodium hydroxide (Reagent C, Table 1) is added and mixed. The fluorescence is measured with an Aminco-Bowman spectrophotofluorometer with an excitation wavelength of 325 nm and emission wavelength of 415 nm. A 1 cm light path cuvette is used with a xenon lamp, an IP28 photomultiplier tube and 2 mm slits.
Total cholesterol: The same procedure described above for free cholesterol is followed for total cholesterol except that the total reagent (Reagent B, Table 1) is used instead of the free reagent and the samples are incubated for 20 minutes at 37° C. before the addition of the 0.5 N sodium hydroxide solution (Reagent C, Table 1).
The amount of cholesterol ester is found by subtracting the amount of free cholesterol from the total cholesterol content of the cells determined by the assay.

[2] = test system: serum cholesterol and cholesterol ester levels; assay: Oral administration to rabbits with high cholesterol diet, serum cholesterol and arterial plaques; format: in vivo; details: oral 200 mg/kg per day for 9 weeks, compared to controls
cholesterol absorption = assay: Zilversmit test, cholesterol absorption in the cholesterol fed rabbit; format: in vivo, Male New Zealand rabbits; details: three days, n = 4
Protocol: The Zilversmit test is carried out as follows:
Cholesterol-1-2-^3 H and cholesterol-4-^14 C were obtained from New England Nuclear. They were purified by high pressure liquid chromatography (Beckman Model 332) using a reverse phase ultrasphere O.D.S. 25 cm×4.5 mm I.D. column with the following solvent system:
The flow rate was 1 ml/min. Detection was made at 206 nm using a Model 155-40 UV-Vis detector (Beckman). The radioactive cholesterol solution in benzene was evaporated to dryness, taken up in isopropyl alcohol and injected into the HPLC in five 20 μl aliguots. Cholesterol fractions were collected, pooled and evaporated to dryness. The purified fraction was rechromatographed under the same conditions to confirm purity.
The HPLC-purified cholesterol-1-2-^3 H was dissolved in corn oil (M.C.B.U.S.P.). The corn oil solution was added to 6.8% skim milk in a ratio of 1:4. This mixture was homogenized by sonicating with a Bronwell Biosonik IV sonicator using a microprobe at a "Lo" setting of 50 until a homogenous suspension was formed. […]
The radioactivity was determined by liquid scintillation counting in either a Packard 3320 Liquid Scintillation Spectrometer or a Beckman Model LS8000. […]
The combined efficiency of the oxidizer and liquid scintillation counter was determined for each isotope from standards of known specific activity. […]

[3] = 1 mg test compound per 100 ml of media, 24 hours, listed as A
[4] = Dose 10 (unit uncertain) as printed
[5] = Dose 10 as printed, Control = 0.17

Structure (SMILES): CCCCCCCC/C=C\CCCCCCCC(=O)NC(Cc1c[nH]c2ccccc12)C(=O)OCC (single isomer, unassigned) [Example 2a, α-[(1-oxo-9-octadecenylamino)]-1H-indole-3-propanoic acid, ethyl ester (cis isomer)]
- Cholesterol Free [1, 3]: 50.4 μg/mg cell protein and 54.4 μg/mg cell protein
- Cholesterol Total [1, 3]: 57.4 μg/mg cell protein and 60.3 μg/mg cell protein
- Cholesterol Ester Amount ([1]; 1 mg test compound per 100 ml of media, 24 hours, single culture, controls 23.1 and 21.4, listed as A): 7.0 μg/mg cell protein and 5.9 μg/mg cell protein
- Cholesterol Ester Percent from control ([1]; decrease, significant at P less than 0.01, 1 mg per 100 ml of media): 71.0%
- Cholesterol Ester mean ([1]; mean of two cultures, 1 mg per 100 ml of media, control mean 22.3): 6.5 μg/mg cell protein
- Cholesterol Free (Fu5AH rat hepatoma cells; 10 μg/ml, 5% HRS, Mean ± SEM, p < .01 vs Hyperlipemic Control 40.7 ± 0.6): 76.8 ± 6.5 μg/mg Cell Protein
- Cholesterol Ester (Fu5AH rat hepatoma cells; 10 μg/ml, 5% HRS, Mean ± SEM, p < .01 vs Hyperlipemic Control 152.5 ± 2.3): 40.6 ± 1.3 μg/mg Cell Protein
- Cholesterol Total (Fu5AH rat hepatoma cells; 10 μg/ml, 5% HRS, Mean ± SEM, p < .01 vs Hyperlipemic Control 193.0 ± 2.9): 117.4 ± 5.2 μg/mg Cell Protein
- % inh (cholesterol ester accumulation) (Fu5AH rat hepatoma cells; 10 μg/ml, Table 5): 73%
- inhibition of cholesterol accumulation by cells (Fu5AH rat hepatoma cells; Fu5AH cells): marked inhibition of cholesterol accumulation
- F/T (Fu5AH rat hepatoma cells; calculated from Table 5 (10 μg/ml), hyperlipemic control = 0.21): 0.65
- arterial wall plaques [2]: lessened formation or absence of arterial wall plaques
- cholesterol and cholesterol ester serum levels [2]: reduction in cholesterol and cholesterol ester serum levels
- Percent Cholesterol Absorption (cholesterol absorption; 200 mg/kg by gavage, ± S.E.M., control 43.0 ± 2.03): 20.0 ± 1.43%
- Percent Cholesterol Absorption (cholesterol absorption; 500 mg/kg by gavage, Mean ± S.E.M., control 41.0 ± 3.3): 11.2 ± 1.1%

Structure (SMILES): CCCCC/C=C\C/C=C\CCCCCCCC(=O)NC(Cc1c[nH]c2ccccc12)C(=O)OCC (stereo not drawn) [Example 1, α-[(1-Oxo-9,12-oxtadecadienylamino)]1H-Indole-3-Propanoic acid, Ethyl Ester(cis, cis isomer)]
- Visual (in comparison to results with compound of Example 2a) (Fu5AH rat hepatoma cells; [4]): About same
- % Inhibition of cholesterol ester accumulation (Fu5AH rat hepatoma cells; Dose 10 (unit uncertain) as printed, Table 6): 59%
- inhibition at 10 µg/mL (Fu5AH rat hepatoma cells; Table 6): 69%

Structure (SMILES): CCCCCCCC/C=C\CCCCCCCC(=O)NC(Cc1cn(C)c2ccccc12)C(=O)OCC (centres unmarked) [Example 3a, 2-(1-oxo-9-octadecenylamino)-3-(1-methylindolyl)-propanoic acid, ethyl ester]
- F/T (Fu5AH rat hepatoma cells; [5]): 0.52

Structure (SMILES): CCCCCCCC/C=C\CCCCCCCC(=O)NC(Cc1c[nH]c2ccc(OC)cc12)C(=O)OCC (centres unmarked) [Example 3b, 2-(1-oxo-9-octadecenylamino)-3-(1H-5-methoxyindolyl)-propanoic acid, ethyl ester]
- Visual (in comparison to results with compound of Example 2a) (Fu5AH rat hepatoma cells; [4]): About same
- F/T (Fu5AH rat hepatoma cells; [5]): 0.45

Structure (SMILES): CCCCCCCC/C=C\CCCCCCCC(=O)NC(Cc1c[nH]c2ccc(F)cc12)C(=O)OCC (centres unmarked) [Example 3e, 2-(1-oxo-9-octadecenylamino)-3-(1H-5 fluoroindolyl)-propanoic acid, ethyl ester]
- Visual (in comparison to results with compound of Example 2a) (Fu5AH rat hepatoma cells; [4]): About same
- inhibition at 10 µg/mL (Fu5AH rat hepatoma cells; Table 6): 39%

Structure (SMILES): CCCCC/C=C\C/C=C\CCCCCCCC(=O)NC(Cc1c[nH]c2ccccc12)C(=O)OCCCCCCCC (centres unmarked) [Example 4c]
- Visual (in comparison to results with compound of Example 2a) (Fu5AH rat hepatoma cells; Dose 5 (unit uncertain) as printed): Weaker
- F/T (Fu5AH rat hepatoma cells; Dose 5 as printed, Control = 0.19): 0.22

Structure (SMILES): CCCCC/C=C\C/C=C\CCCCCCCC(=O)NC(Cc1c[nH]c2ccccc12)C(=O)OCc1ccccc1 (centres unmarked) [Example 4d]
- Visual (in comparison to results with compound of Example 2a) (Fu5AH rat hepatoma cells; [4]): About same
